Source: PMC10643420, “A glutamate-gated chloride channel as the mite-specific target-site of dicofol and other diphenylcarbinol acaricides” (Communications Biology, 2023)

Experiments:
Format in all cases: cell-based
[1] = molecular target: T1, TuGluCl3 (glutamate-gated chloride channel 3) (Tetranychus urticae, UniProt T1KFH0); assay: two-electrode voltage clamp in Xenopus oocytes; agonist, also potentiates glutamate currents
T1 construct: gene 107363680; homomeric WT TuGluCl3 receptor expressed in Xenopus laevis oocytes
T1 sequence (T1KFH0 36-542): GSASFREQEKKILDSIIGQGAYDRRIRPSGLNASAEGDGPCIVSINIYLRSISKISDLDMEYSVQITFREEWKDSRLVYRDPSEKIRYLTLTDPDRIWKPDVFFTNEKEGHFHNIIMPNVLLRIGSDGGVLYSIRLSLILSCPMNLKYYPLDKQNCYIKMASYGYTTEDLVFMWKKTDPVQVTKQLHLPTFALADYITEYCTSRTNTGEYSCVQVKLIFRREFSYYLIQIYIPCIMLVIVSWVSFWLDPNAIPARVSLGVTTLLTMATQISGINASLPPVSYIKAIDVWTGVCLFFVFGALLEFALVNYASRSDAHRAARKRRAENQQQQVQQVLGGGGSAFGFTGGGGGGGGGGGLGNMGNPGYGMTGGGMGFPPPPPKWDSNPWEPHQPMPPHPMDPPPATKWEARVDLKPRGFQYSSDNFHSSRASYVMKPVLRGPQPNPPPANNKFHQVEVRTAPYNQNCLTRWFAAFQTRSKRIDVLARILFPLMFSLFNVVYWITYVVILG

[2] = molecular target: T2, TuGluCl3 (glutamate-gated chloride channel 3) (Tetranychus urticae, UniProt T1KFH0, G326E); assay: two-electrode voltage clamp in Xenopus oocytes at […] (natural agonist)
T2 construct: gene 107363680; homomeric TuGluCl3 G326E receptor expressed in Xenopus laevis oocytes

[3] = molecular target: T1, TuGluCl3 (glutamate-gated chloride channel 3); assay: as above

| Structure (SMILES) | EC50 [1] [µM] | two-electrode voltage clamp in Xenopus oocytes at 500 μM (natural agonist) [2] | two-electrode voltage clamp in Xenopus oocytes at 500 μM (natural agonist) [3] |
| --- | --- | --- | --- |
| CCOC(=O)C(O)(c1ccc(Cl)cc1)c1ccc(Cl)cc1 [chlorobenzilate] | 2.78 |  |  |
| CC(C)OC(=O)C(O)(c1ccc(Br)cc1)c1ccc(Br)cc1 [bromopropylate] | 3.23 |  |  |
| N[C@@H](CCC(=O)O)C(=O)O [L-glutamic acid] |  | both TuGluCl3 receptors showed clear responses to L-Glu | both TuGluCl3 receptors showed clear responses to L-Glu |
| OC(c1ccc(Cl)cc1)(c1ccc(Cl)cc1)C(Cl)(Cl)Cl [dicofol, 2,2,2-trichloro-1,1-bis(4-chlorophenyl)ethanol] | 3.58 |  |  |
